The values that follow come from PubChem BioAssay (NCI).

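Tested at 5 concentrations; 48 h exposure; 96-well plates; endpoints linearly interpolated, else capped at highest concentration. Definition used: TGI = concentration required for complete inhibition of growth.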

Common to all, as to test: NCI tumour cell line growth inhibition, 48 h
For experiment [1], the system named is CAKI-1 renal.
The subject of experiment [2] is HOP-62 NSCLC.
In experiment [3] the test system is K-562 leukemia.
Experiment [4] deals with KM12 colon.
Experiment [5] relates to MDA-MB-231 breast.
Experiment [6] concerns NCI/ADR-RES ovarian.
The test system of experiment [7] is OVCAR-4 ovarian.
Experiment [8] relates to RXF 393 renal.
Experiment [9] relates to SF-539 CNS.
Experiment [10] has as its system SK-MEL-2 melanoma.
Experiment [11] has as its system SNB-19 CNS.
Experiment [12] relates to UO-31 renal.
Experiment [13] deals with HL-60(TB) leukemia.
The subject of experiment [14] is MCF7 breast.

Take `Cc1cccc2[nH]c3cc(O)cc(O)c3c(=O)c12`: the TGI in experiment [1], in [2], in experiment [3], in experiment [4], in experiment [5] and in experiment [6] was greater than 10 µM throughout. Moreover, the TGI in experiment [7], in experiment [8], in experiment [9], in experiment [10], in experiment [11] and in [12] was greater than 10 µM throughout.
Take `CC1(c2cccc3c2C2(O)C=CC4(CCC32)OCCO4)OCCO1` (stereo not drawn): the TGI in [1], in [13], in [2], in experiment [3], in experiment [4] and in experiment [7] was greater than 100 µM in each case. The TGI in experiment [8], in experiment [9], in [10], in experiment [11] and in experiment [12] was greater than 100 µM each time.
Take `COc1cccc(/C(CC(O)(C(F)(F)F)C(F)(F)F)=N\N(C)C)c1`: the TGI in [1], in [13], in experiment [2], in experiment [3], in experiment [4] and in experiment [5] was greater than 100 µM throughout. In addition, the TGI in [6], in experiment [7], in experiment [8], in experiment [9], in experiment [10] and in [11] was greater than 100 µM in each case. Also, in experiment [12], the TGI was greater than 100 µM.
As for `CCCCCCCC(=O)OC[C@@H](C[As](=O)(O)O)OC(=O)CCCCCCC`, the TGI in experiment [13] was determined as 21.7 µM; in experiment [2], 32.9 µM; in experiment [3], 51.4 µM; in experiment [7], 28.9 µM; in experiment [8] it was 19.3 µM; in experiment [9], 22.3 µM. For the same compound, the TGI in experiment [11] is 27.3 µM; in experiment [12] it was 17.1 µM.
In the case of `CC(NC(=O)C(OC(=O)C(C)NC(=O)OC(C)(C)C)C(C)C)C(=O)OC(C(=O)O)C(C)C` (stereo not drawn), the TGI in [1], in [2], in [3], in experiment [4], in experiment [5] and in experiment [6] was greater than 100 µM each time. The TGI in experiment [8], in experiment [9], in experiment [10], in [11] and in experiment [12] was greater than 100 µM in each case.
Take `CC1C2=C(CC(C)(C)CC2=O)NC2=C1C(=O)CC(C)(C)C2`: the TGI in [1], in experiment [13], in experiment [3], in [4], in experiment [14] and in experiment [6] was greater than 100 µM throughout. Besides, the TGI in [7], in experiment [9], in experiment [11] and in experiment [12] was greater than 100 µM in each case.
On to `CC1CC(=O)Nc2cc(Cl)ccc2N1C(=O)C1CC1` (stereo not drawn), for which the TGI in experiment [1], in experiment [13], in experiment [2], in [3], in experiment [4] and in experiment [14] was greater than 100 µM throughout. For the same compound, the TGI in experiment [5], in experiment [7], in [8], in experiment [9], in experiment [10] and in experiment [11] was greater than 100 µM in each case. The TGI in experiment [12] is greater than 100 µM.
`COC(=O)C1CC(=O)CCC1c1ccccc1` (stereo not drawn): the TGI in experiment [1], in [13], in experiment [2], in [3], in [4] and in [7] was greater than 100 µM throughout. Besides, the TGI in experiment [9], in experiment [10], in experiment [11] and in [12] was greater than 100 µM in each case.
As for `O=C1CSC(/C(=C/c2ccccc2)c2nc3ccccc3[nH]2)=N1`, the TGI in [1], in [13], in experiment [2], in [3], in experiment [4] and in experiment [7] was greater than 100 µM each time. For the same compound, the TGI was 74.4 µM in experiment [9], greater than 100 µM in experiment [10], greater than 100 µM in [11] and greater than 100 µM in experiment [12].
With `CC1=CCC2(C#N)CCC1C2O` (stereo not drawn), the TGI in [1], in experiment [13], in [2], in [3], in experiment [4] and in experiment [7] was greater than 100 µM each time. For the same compound, the TGI in [8], in [9], in experiment [10], in experiment [11] and in [12] was greater than 100 µM each time.
`NC(=O)c1cc(-c2ccc(-n3ccnc3)cc2)n[nH]c1=O`: the TGI in [1], in experiment [13], in [2], in [14], in [7] and in experiment [8] was greater than 100 µM throughout. The TGI in experiment [9], in [11] and in experiment [12] was greater than 100 µM each time.
For `O=c1cc(CO)n(CCc2c[nH]c3ccccc23)cc1O`, the TGI was greater than 100 µM in experiment [1]; greater than 100 µM in [2]; greater than 100 µM in experiment [4]; 59.6 µM in [14]; greater than 100 µM in experiment [5]; 99.6 µM in experiment [6]. Also, the TGI in experiment [9], in [10], in experiment [11] and in experiment [12] was greater than 100 µM throughout.
